In this test the test system is P388 leukemia ip, CD2F1 mice, survival T/C. As to the kind of experiment: NCI In Vivo Anticancer Drug Screen. Data for tumor model P388 Leukemia (intraperitoneal) in CD2F1 (CDF1) mice. The following applies: endpoint: median survival time, higher = longer survival. The procedure, abridged:
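Mice carrying the transplanted tumor received test compound or vehicle. Survival was recorded in each group, and the value is the treated-group measurement divided by that of the vehicle-treated control group.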

Where [1] appears, read: dose: 60.0 mg/kg/injection, schedule: Q01DX005 (ip), vehicle: saline.
Where [2] appears, read: dose: 120.0 mg/kg/injection, schedule: Q01DX005 (ip), vehicle: saline.
The mark [3] stands for this setting: dose: 50.0 mg/kg/injection, schedule: Q01DX005 (ip), vehicle: Klucel (hydroxypropylcellulose) (HPC).
Setting [4] is: dose: 50.0 mg/kg/injection, schedule: Q01DX009 (ip), vehicle: saline with Tween-80.
Where [5] appears, read: dose: 50.0 mg/kg/injection, schedule: Q01DX009 (ip), vehicle: saline.
[6] abbreviates: dose: 100.0 mg/kg/injection, schedule: Q01DX009 (ip), vehicle: saline.
Setting [7] is: dose: 12.5 mg/kg/injection, schedule: Q01DX009 (ip), vehicle: saline with Tween-80.
Where [8] appears, read: dose: 25.0 mg/kg/injection, schedule: Q01DX009 (ip), vehicle: saline with Tween-80.
Setting [9] is: dose: 100.0 mg/kg/injection, schedule: Q01DX001 (ip), vehicle: saline.
Setting [10] is: dose: 200.0 mg/kg/injection, schedule: Q01DX001 (ip), vehicle: saline.
Where [11] appears, read: dose: 400.0 mg/kg/injection, schedule: Q01DX001 (ip), vehicle: saline.

Where “and” joins values, the source holds several entries; their conditions need not be identical. Identical values can stand only once. Toxic doses and inconclusive results are not listed.

In the case of `O=NNc1ccc(I)cn1`, the T/C is, setting by setting: (dose: 6.25 mg/kg/injection, schedule: Q01DX009 (ip), vehicle: water) 170 % of control; (dose: 12.5 mg/kg/injection, schedule: Q01DX009 (ip), vehicle: water) 173 % of control and 190 % of control.
As for `CCCN(CCC)c1cc(=O)nc2ccccn12`, the T/C under setting [1] is 100 % of control; the T/C under setting [2] was 106 % of control; the T/C (dose: 240.0 mg/kg/injection, schedule: Q01DX005 (ip), vehicle: saline) is 106 % of control.
`N#CC[N+]1(Cc2ccccn2)CCCC1`: the T/C under setting [1] is 101 % of control and the T/C under setting [2] was 108 % of control.
`CC(C)NCCCNCC(=O)Nc1ccc(S(=O)(=O)c2ccc(NC(=O)CNCCCNC(C)C)cc2)cc1`: the T/C is 104 % of control (dose: 12.5 mg/kg/injection, schedule: Q01DX005 (ip), vehicle: Klucel (hydroxypropylcellulose) (HPC)); 102 % of control (dose: 25.0 mg/kg/injection, schedule: Q01DX005 (ip), vehicle: Klucel (hydroxypropylcellulose) (HPC)); 103 % of control under setting [3].
As to `Nc1nc2ncc(CNc3ccc(C(=O)NC(CCC(=O)O)C(=O)O)cc3)nc2c(=O)[nH]1` (stereo not drawn), the T/C is, setting by setting: (dose: 6.25 mg/kg/injection, schedule: Q01DX009 (ip), vehicle: saline) 103 % of control; (dose: 12.5 mg/kg/injection, schedule: Q01DX009 (ip), vehicle: saline) 99 % of control and 98 % of control; (dose: 25.0 mg/kg/injection, schedule: Q01DX009 (ip), vehicle: saline) 99 % of control and 96 % of control; (dose: 45.0 mg/kg/injection, schedule: Q04DX003 (ip), vehicle: saline) 103 % of control; under setting [4], 108 % of control; under setting [5], 101 % of control and 103 % of control. Further, the T/C was 61 % of control (dose: 90.0 mg/kg/injection, schedule: Q04DX003 (ip), vehicle: saline); 98 % of control under setting [6]; 40 % of control (dose: 180.0 mg/kg/injection, schedule: Q04DX003 (ip), vehicle: saline).
Consider `C[C@]12CC[C@H](OC(=O)COc3ccc(N(CCCl)CCCl)cc3)C[C@@H]1CC[C@@H]1[C@@H]2CC[C@]2(C)NC(=O)CC[C@@H]12`, for which the T/C (dose: 2.0 mg/kg/injection, schedule: Q01DX009 (ip), vehicle: saline with Tween-80) was 120 % of control; the T/C (dose: 8.0 mg/kg/injection, schedule: Q01DX009 (ip), vehicle: saline with Tween-80) was 151 % of control and 157 % of control and 192 % of control; the T/C (dose: 16.0 mg/kg/injection, schedule: Q01DX009 (ip), vehicle: saline with Tween-80) was 180 % of control and 184 % of control and 192 % of control; the T/C (dose: 32.0 mg/kg/injection, schedule: Q01DX009 (ip), vehicle: saline with Tween-80) was 107 % of control and 180 % of control and 217 % of control.
Consider `O=C([S-])N1CCCCC1.O=C([S-])N1CCCCC1.[Ni+2]`, for which the T/C is 90 % of control under setting [7], 100 % of control under setting [8] and 90 % of control under setting [4].
Take `CCCCCN(CCNc1cc(OC)cc2cccnc12)C(C)CC` (stereo not drawn): the T/C runs as follows: (dose: 12.5 mg/kg/injection, schedule: Q01DX005 (ip), vehicle: saline) 112 % of control; (dose: 25.0 mg/kg/injection, schedule: Q01DX005 (ip), vehicle: saline) 103 % of control; (dose: 50.0 mg/kg/injection, schedule: Q01DX005 (ip), vehicle: saline) 101 % of control and 97 % of control; (dose: 100.0 mg/kg/injection, schedule: Q01DX005 (ip), vehicle: saline) 100 % of control.
`CC(C)COC(=O)NC(C(=O)N(C(=O)NC1CCCCC1)C1CCCCC1)C(C)C` (stereo not drawn): the T/C is 100 % of control under setting [3]; 95 % of control (dose: 100.0 mg/kg/injection, schedule: Q01DX005 (ip), vehicle: Klucel (hydroxypropylcellulose) (HPC)); 95 % of control (dose: 200.0 mg/kg/injection, schedule: Q01DX005 (ip), vehicle: Klucel (hydroxypropylcellulose) (HPC)).
Consider `CCN(CC)CCNc1c(C)cccc1Cl`, for which the T/C runs as follows: (dose: 60.0 mg/kg/injection, schedule: Q01DX005 (ip), vehicle: saline with Tween-80) 100 % of control; (dose: 120.0 mg/kg/injection, schedule: Q01DX005 (ip), vehicle: saline with Tween-80) 100 % of control.
As to `COc1cc2ccncc2cc1Oc1c(OC)c(OC)cc2ccncc12`, the T/C reads like this: (dose: 60.0 mg/kg/injection, schedule: Q01DX005 (ip), vehicle: Klucel (hydroxypropylcellulose) (HPC)) 100 % of control; (dose: 120.0 mg/kg/injection, schedule: Q01DX005 (ip), vehicle: Klucel (hydroxypropylcellulose) (HPC)) 90 % of control; (dose: 240.0 mg/kg/injection, schedule: Q01DX005 (ip), vehicle: Klucel (hydroxypropylcellulose) (HPC)) 100 % of control.
In the case of `CCOC(=O)C(C(=O)c1ccccc1)c1cc(NS(=O)(=O)c2ccccc2)ccc1O` (stereo not drawn), the T/C under setting [7] was 90 % of control; the T/C under setting [8] was 100 % of control; the T/C under setting [4] was 105 % of control; the T/C (dose: 75.0 mg/kg/injection, schedule: Q04DX003 (ip), vehicle: saline with Tween-80) is 100 % of control; the T/C (dose: 150.0 mg/kg/injection, schedule: Q04DX003 (ip), vehicle: saline with Tween-80) is 100 % of control; the T/C (dose: 300.0 mg/kg/injection, schedule: Q04DX003 (ip), vehicle: saline with Tween-80) is 100 % of control.
Consider `C[S+](C)CCCNC(=O)c1csc(-c2csc(N)n2)n1`, for which the T/C is, setting by setting: (dose: 6.25 mg/kg/injection, schedule: Q01DX005 (ip), vehicle: water) 100 % of control; (dose: 12.5 mg/kg/injection, schedule: Q01DX005 (ip), vehicle: water) 96 % of control; (dose: 25.0 mg/kg/injection, schedule: Q01DX005 (ip), vehicle: water) 96 % of control.
Take `CCN(CC)CCNc1ccc(C)c2sc3ccc(N)cc3c(=O)c12`: the T/C is 120 % of control under setting [7]; 103 % of control under setting [8]; 124 % of control under setting [4]; 118 % of control (dose: 100.0 mg/kg/injection, schedule: Q01DX009 (ip), vehicle: saline with Tween-80).
For `COC(=O)C1(C)CCCC1=O` (stereo not drawn), the T/C is 96 % of control (dose: 50.0 mg/kg/injection, schedule: Q01DX009 (ip), vehicle: other); 95 % of control (dose: 100.0 mg/kg/injection, schedule: Q01DX009 (ip), vehicle: other); 99 % of control (dose: 200.0 mg/kg/injection, schedule: Q01DX009 (ip), vehicle: other).
As to `Cc1cc(OCC(=O)N/N=C/c2ccc(N(CCCl)CCCl)cc2)c2ccc(Cl)cc2n1`, the T/C under setting [5] was 95 % of control and 97 % of control; the T/C under setting [6] was 97 % of control; the T/C (dose: 200.0 mg/kg/injection, schedule: Q01DX009 (ip), vehicle: saline) was 101 % of control and 87 % of control.
For the molecule `CSc1nccc(=O)n1-c1ccccc1C`, the T/C is 100 % of control (dose: 100.0 mg/kg/injection, schedule: Q04DX002 (ip), vehicle: Klucel (hydroxypropylcellulose) (HPC)) and 102 % of control (dose: 200.0 mg/kg/injection, schedule: Q04DX002 (ip), vehicle: Klucel (hydroxypropylcellulose) (HPC)).
As to `C1CC[N-]CC1.CC(=O)Nc1[c-]cccc1.CC(=O)O.[Pd+2]`, the T/C (dose: 25.0 mg/kg/injection, schedule: Q01DX005 (ip), vehicle: saline with Tween-80) was 112 % of control and 95 % of control; the T/C (dose: 50.0 mg/kg/injection, schedule: Q01DX005 (ip), vehicle: saline with Tween-80) is 107 % of control and 114 % of control and 119 % of control; the T/C (dose: 100.0 mg/kg/injection, schedule: Q01DX005 (ip), vehicle: saline with Tween-80) is 111 % of control.
Regarding `Cc1ccc(NC2OC(CO)C(O)C2O)c([N+](=O)[O-])c1` (stereo not drawn), the T/C is, setting by setting: under setting [9], 108 % of control; under setting [10], 97 % of control; under setting [11], 99 % of control.
The matching figures for `COc1ccc(CS(=O)(=O)c2cncnc2N)cc1OC`: 106 % of control, 96 % of control and 101 % of control.
As to `c1ccc2nc(-c3cnc4ccccc4n3)cnc2c1`, the T/C is 95 % of control (dose: 100.0 mg/kg/injection, schedule: Q04DX002 (ip), vehicle: saline with Tween-80) and 90 % of control (dose: 200.0 mg/kg/injection, schedule: Q04DX002 (ip), vehicle: saline with Tween-80).
Turning to `CC1CN1P(=S)(N1CC1C)N1CC1C` (stereo not drawn), the T/C runs as follows: (dose: 2.5 mg/kg/injection, schedule: Q01DX010 (ip), vehicle: saline) 110 % of control; (dose: 5.0 mg/kg/injection, schedule: Q01DX010 (ip), vehicle: saline) 95 % of control; (dose: 10.0 mg/kg/injection, schedule: Q01DX010 (ip), vehicle: saline) 115 % of control.

For the origin of these results see PubChem BioAssay AID330 (DTP/NCI, 2004).
